US12115207B2, “Treatment of inflammation” (Ariel Scientific Innovations Ltd., priority 2019, dated 2024)
Bridges are numbered along the chain shown (N, C = ends).

Columns and labels:
[1] = test system: crown-like structures (macrophages) in adipose tissue; assay: Crown-like structures in adipose tissue (H&E histology) of submissive mice; type: in vivo; conditions: sub-chronic 10 and 30 mg/kg, H&E staining, FIG. 2C
Experimental: The adipose tissue of submissive mice treated with 10 and 30 mg/kg of ALOS4 were excised and fixed with 4% formalin overnight at 4° C., followed by dehydration and paraffin embedding (Cat #BN0763, Barnaor). Serial sections of 5 μm thickness were cut and placed on charged glass slides (LE-14035838925, Leica, Germany) and incubated for 1 h at 60° C. At least three slides from each adipose tissue sample with 300 μm distance between sections were collected for histological staining. Prior to Hematoxylin and Eosin (H&E), all sections were subjected to de-paraffinized and hydrated by decreasing concentrations of ethanol in deionized water.
De-paraffinized and hydrated slides were immersed in Meyer's Hematoxylin solution (Cat #HX68597049, MERCK) for 5 min, washed for 5 min with tap water, and then immersed in Eosin solution (Cat #HX6109259, MERCK) for 2 min, rehydrated and mounted with Entalain.
Macrophages were evaluated by a scoring system using light microscopy. A score of 1 is characterized by the absence of crown like structures in framed field, 10-20 crowns characterize the score of 2, a score of 3—20-30 crown like structures, a score of 4—30-40 crowns and a score of 5—abundant crowns (40-50).

[2] = test system: interferon type I signaling; assay: ISRE response, HT1080 ISRE mCherry reporter cells stimulated with Poly I:C; type: cell-based; conditions: pretreatment with 0.3 μM for 48 h, FIG. 1A, 1C
Experimental: (§1) HT1080 cells transfected with mCherry reporter under an ISRE (Interferon-Sensitive Response Element) promoter and HCT116 with Luc reporter under ISRE promoter were used. Raw 264.7 (undifferentiated murine macrophages) cell line was also used. The cells were cultured in appropriate media: Dulbecco's Modified Eagle Medium (DMEM) (Cat #41965-039, Gibco) with 4.5 g/l glucose and L-glutamine augmented with 10% FBS (Gibco, Grand Island, NY), 100 U/ml penicillin and 100 μg/ml streptomycin in a humidified atmosphere at 37° C. with 5% CO2.
HT1080 ISRE mCherry cells were plated in 6-well plates at 2×10^4 cells/well. […] Following the 48 hour incubation, 25 μg/well of Polyinosinic:polycytidylic acid (Poly I:C)—a chemical compound structurally similar to double-stranded RNA and acting via Toll Like Receptor-3 molecular pathway activation, was added for an additional 16 h incubation. After this second incubation, cells were subjected to fluorescent imaging followed by washing with 1×PBX, trypsinization and resuspension with 300 μl of 1×PBS. 200 μl of cell suspension were further loaded into 96-well black clear bottom plates. Strength of mCherry fluorescence signal was detected by an ELISA reader with multiple reads per well at 574Ex/610Em.

[3] = test system: interferon type I signaling; assay: ISRE response, HCT116 ISRE Luc reporter cells stimulated with Poly I:C; type: cell-based; conditions: pretreatment with 0.3 μM for 48 h, FIG. 1B
Experimental: as §1
HCT116 ISRE Luc cells were plated in 96-well plates at 3×10^3 cells/well. The next day DMEM was replaced with DMEM containing 0.3 μM of ALOS4 or saline as control with/without PEI—transfection reagent, and cells continued to grow for 48 h. Following the 48 h incubation 1 μg/ml of Poly I:C was added for an additional 16 h incubation. After this second incubation the media was removed, 30 μl of Bright-Glo™ Luciferase Assay System (Promega, Cat #E2610) was added. Plate was read with plate reader on Luminescent parameters.

[4] = test system: Raw267.4 cells; assay: Nitric oxide level assay, LPS-induced macrophage differentiation; type: cell-based, mouse; conditions: FIG. 2D
Experimental: Ability of ALOS4 to affect macrophage differentiation to pro- and anti-inflammatory macrophages was evaluated on mouse monocyte macrophages (Raw267.4) using the nitric oxide level assay. Cells were plated at a density of 1×10^5 cells/ml in 12 well plates for 12 h, followed by treatment with LPS (200 ng/ml) and ALOS4 (0.3 and 30 μM). Nitric oxide production of monocyte differentiation to pro-inflammatory M1 was detected with Griess reaction kit (Cat #G2930, Promega) according to the protocol. The absorbance was read at 540 nm with ELISA plate reader (Tecan infinite M200pro, Switzerland) and nitric oxide concentration was calculated using the Nitrite Standard Reference Curve.

[5] = test system: serum cytokines; assay: Serum cytokine array after sub-chronic treatment of submissive mice; type: in vivo
Experimental: Submissive mice are derivates from “Sabra” strain were maintained under a 12 h light/12 h dark cycle with Purina rodent chow (Envigo, Israel) and water provided ad libitum. The animals were housed five per cage. All procedures with animals were performed after review and approval by the Institutional Animal Care and Use Committee of Ariel University.
Blood samples of submissive mice treated with control, as well as 10 and 30 mg/kg of ALOS4 were collected by terminal bleeding from the heart and centrifuged at 14,000 rpm for 20 min. Serum was removed to a new tube and stored at −80° C. for future use. Mouse XL Cytokine Array Kit (Cat #ARYO28, R&D) was used to detect the cytokines in the serum of submissive mice according to the manufacturer's instructions. Serum from treatment groups (saline, 10 and 30 mg/kg ALOS4) was added to each membrane. Streptavidin-HRP and Chemi Reagent Mix were used to detect the antibodies bound to the membrane. The membranes were then exposed (Image Quant LAS4000 mini; GE Healthcare, Milwaukee, WI, USA) and analyzed using ImageQuant TL software (GE Healthcare).

[6] = 10 and 30 mg/kg i.v., every second day within 10 days, FIG. 2A

**Q.** Which results are given for “H-cycl (Cys-Ser-Ser-Ala-Gly-Ser-Leu-Phe-Cys)-OH (H-CSSAGSLFC-OH; disulfide 1-9 (inferred)) [ALOS4]”?
**A.** frequency of crown-like structures in fat pads [1]: a decrease in frequency was observed; ability of cells to induce interferon type I signaling in response to Poly I:C (mCherry fluorescence) [2]: suppressed; ability of cells to induce interferon type I signaling in response to Poly I:C (luciferase) [3]: suppressed; nitric oxide (indicator of differentiation to pro-inflammatory macrophages) ([4]; LPS-induced, one-way ANOVA p<0.01 and p<0.001): significant dose-dependent decrease; differentiation of macrophages to pro-inflammatory M1 ([4]; Raw267.4 cells, LPS 200 ng/ml, 0.3 and 30 μM for 24 hours): inhibited differentiation of the macrophages to pro-inflammatory M1 in a dose dependent manner; IL-1α/IL-1F1 in blood [5, 6]: did not change; total interleukins in blood as compared to the control group [5, 6]: downregulation; pro-inflammatory markers (Jak-STAT signaling pathway) in serum ([5]; sub-chronic 10 and 30 mg/kg, FIG. 2B): strong tendency toward down-regulation
